Experimental data reported in ChEMBL document CHEMBL4138121, “Selective photocytotoxicity of anthrols on cancer stem-like cells: The effect of quinone methides or reactive oxygen species” (Eur J Med Chem, 2017).
Activity calls are given as the source filed them. The calls are words filed in the database; no cut-off is given here.

Key:
[1] = Dark toxicity against human MCF7 cells after 72 hrs by MTT assay; format: cell-based
HCT-116 [2] = test: Photocytotoxicity against human HCT116 cells assessed as growth inhibition irradiated at 420 nm at 4, 24, 48 hrs post compound addition for 5 mins measured after 72 hrs by MTT assay; format: functional, cell-based; details: HCT-116, light or radiation study
NCI-H460 [3] = test: Photocytotoxicity against human H460 cells assessed as growth inhibition irradiated at 350 nm at 4, 24, 48 hrs post compound addition for 5 mins measured after 72 hrs by MTT assay; format: functional, cell-based; details: NCI-H460, light or radiation study
[4] = Photocytotoxicity against HMLE-shGFP cells assessed as growth inhibition irradiated at 350 nm at 4, 24, 48 hrs post compound addition for 5 mins measured after 72 hrs by MTT assay; format: cell-based; details: Homo sapiens, light or radiation study
Calf thymus DNA [5] = test: Binding affinity to calf thymus DNA at 4.2 x 10^-5 M by fluorescence spectrocopic method; format: nucleic-acid assay; details: Bos taurus
[6] = Drug uptake in cytoplasm of HMLE-shGFP cells at 5 uM irradiated at 420 nm for 5 mins measured after 2 to 3 hrs by confocal microscopic method; format: ADME, subcellular; details: human
[7] = Dark toxicity against human SUM159 cells after 72 hrs by MTT assay; format: cell-based, SUM-159-PT
HCT-116 [8] = test: Photocytotoxicity against human HCT116 cells assessed as growth inhibition irradiated at 350 nm at 4, 24, 48 hrs post compound addition for 5 mins measured after 72 hrs by MTT assay; format: functional, cell-based; details: HCT-116, light or radiation study
[9] = Photocytotoxicity against HMLE-shEcad cells assessed as growth inhibition irradiated at 420 nm at 4, 24, 48 hrs post compound addition for 5 mins measured after 72 hrs by MTT assay; format: functional, cell-based; details: Homo sapiens, light or radiation study
[10] = Drug uptake in nucleus of HMLE-shGFP cells at 10 uM in absence of irradiation measured after 2 to 3 hrs by confocal microscopic method; format: ADME, subcellular; details: human
[11] = Cell cycle arrest in HMLE-shGFP cells assessed as delay in S/G2 phase at 5 uM irradiated at 420 nm at 4 hrs post compound addition for 5 mins measured after 24 to 48 hrs by propidium iodide staining-based flow cytometric method; details: human
NCI-H460 [12] = test: Photocytotoxicity against human H460 cells assessed as growth inhibition irradiated at 420 nm at 4, 24, 48 hrs post compound addition for 5 mins measured after 72 hrs by MTT assay; format: functional, cell-based; details: NCI-H460, light or radiation study
[13] = Cell cycle arrest in HMLE-shGFP cells at 1 to 5 uM after 24 to 48 hrs in absence of irradiation by propidium iodide staining-based flow cytometric method; details: human
[14] = Drug uptake in cytoplasm of HMLE-shGFP cells at 10 uM in absence of irradiation measured after 2 to 3 hrs by confocal microscopic method; format: ADME, subcellular; details: human
[15] = Cytotoxicity against HMLE-shGFP cells at 10 uM irradiated at 420 nm at 4 hrs post compound addition for 5 mins measured after 48 hrs by propidium iodide staining-based flow cytometric method; format: cell-based; details: human
[16] = Photocytotoxicity against HMLE-shGFP cells assessed as growth inhibition irradiated at 420 nm at 4, 24, 48 hrs post compound addition for 5 mins measured after 72 hrs by MTT assay; format: cell-based; details: Homo sapiens, light or radiation study
[17] = Drug uptake in plasma membranes of HMLE-shGFP cells at 5 uM irradiated at 420 nm for 5 mins measured after 2 to 3 hrs by confocal microscopic method; format: ADME, cell membranes, Plasma membrane; details: human
[18] = Cell cycle arrest in HMLE-shEcad cells at 1 to 5 uM after 24 to 48 hrs in absence of irradiation by propidium iodide staining-based flow cytometric method; details: human
Calf thymus DNA [19] = test: Binding affinity to calf thymus DNA at 4.2 x 10^-5 M by UV-vis spectrocopic method; format: nucleic-acid assay; details: Bos taurus
SUM-159-PT [20] = test: Photocytotoxicity against human SUM159 cells assessed as growth inhibition irradiated at 420 nm at 4, 24, 48 hrs post compound addition for 5 mins measured after 72 hrs by MTT assay; format: functional, cell-based; details: light or radiation study
HMLE [21] = test: Cytotoxicity against HMLE-shEcad cells at 10 uM irradiated at 420 nm at 4 hrs post compound addition for 5 mins measured after 48 hrs by propidium iodide staining-based flow cytometric method; format: functional, cell-based; details: Homo sapiens
[22] = Drug uptake in nucleus of HMLE-shGFP cells at 5 uM irradiated at 420 nm for 5 mins measured after 2 to 3 hrs by confocal microscopic method; format: ADME, subcellular; details: human
MCF7 [23] = test: Photocytotoxicity against human MCF7 cells assessed as growth inhibition irradiated at 350 nm at 4, 24, 48 hrs post compound addition for 5 mins measured after 72 hrs by MTT assay; format: functional, cell-based; details: MCF7, light or radiation study
[24] = Drug uptake in intracellular membranes of HMLE-shGFP cells at 5 uM irradiated at 420 nm for 5 mins measured after 2 to 3 hrs by confocal microscopic method; format: ADME, cell membranes, Intracellular membrane; details: human
SUM-159-PT [25] = test: Cell cycle arrest in human SUM159 cells in presence of irradiation; format: functional, cell-based
[26] = Dark toxicity against human HCT116 cells after 72 hrs by MTT assay; format: cell-based, HCT-116
HMLE [27] = test: Cell cycle arrest in HMLE-shEcad cells assessed as delay in S/G2 phase at 5 uM irradiated at 420 nm at 4 hrs post compound addition for 5 mins measured after 24 to 48 hrs by propidium iodide staining-based flow cytometric method; format: functional; details: Homo sapiens
MCF7 [28] = test: Photocytotoxicity against human MCF7 cells assessed as growth inhibition irradiated at 420 nm at 4, 24, 48 hrs post compound addition for 5 mins measured after 72 hrs by MTT assay; format: functional, cell-based; details: MCF7, light or radiation study
HMLE [29] = test: Anticlonogenic activity against HMLE-shEcad cells at 0.5 to 1 uM irradiated at 350 nm at 4 hrs post compound addition for 5 mins for 5 mins measured after 24 hrs by crystal violet staining-based assay; format: functional, cell-based; details: Homo sapiens
[30] = Dark toxicity against human H460 cells after 72 hrs by MTT assay; format: cell-based, NCI-H460
MCF7 [31] = test: Cell cycle arrest in human MCF7 cells in presence of irradiation; format: functional, cell-based
[32] = Dark toxicity against HMLE-shEcad cells after 72 hrs by MTT assay; format: cell-based; details: human
[33] = Photocytotoxicity against HMLE-shEcad cells assessed as growth inhibition irradiated at 350 nm at 4, 24, 48 hrs post compound addition for 5 mins measured after 72 hrs by MTT assay; format: functional, cell-based; details: Homo sapiens, light or radiation study
[34] = Dark toxicity against HMLE-shGFP cells after 72 hrs by MTT assay; format: cell-based; details: human
Calf thymus DNA [35] = test: Binding affinity to calf thymus DNA at 4.2 x 10^-5 M in presence of irradiation at 420 nm for 5 mins by fluorescence spectrocopic method; format: nucleic-acid assay; details: Bos taurus

Activity (Calf thymus DNA [5]): inactive
Drug uptake [6]: Active
Drug uptake [10]: Not Active
Drug uptake [14]: Active
Drug uptake [17]: Active
Activity (Calf thymus DNA [19]): inactive
Drug uptake [22]: Not Active
Drug uptake [24]: Active
Activity (Calf thymus DNA [35]): Active
SMILES: OCc1cc2cc3ccccc3cc2cc1O
IC50 at 72 h [1]: ≥ 100 µM
IC50 (HCT-116 [2]): 1000 nM
IC50 (NCI-H460 [3]): 15 µM
IC50 [4]: 700 nM
IC50 at 72 h [7]: 11 µM
IC50 (HCT-116 [8]): 2000 nM
IC50 [9]: 1000 nM
Activity [11]: Toxic
IC50 (NCI-H460 [12]): 10 µM
Activity [13]: Non-Toxic
Activity [15]: Toxic
IC50 [16]: 1000 nM
Activity [18]: Non-Toxic
IC50 (SUM-159-PT [20]): 2000 nM
Activity (HMLE [21]): Active
IC50 (MCF7 [23]): 2000 nM
Activity (SUM-159-PT [25]): inactive
IC50 at 72 h [26]: ≥ 100 µM
Activity (HMLE [27]): Active
IC50 (MCF7 [28]): 3000 nM
Activity (HMLE [29]): Active
IC50 at 72 h [30]: ≥ 100 µM
Activity (MCF7 [31]): inactive
IC50 at 72 h [32]: 17 µM
IC50 [33]: 2000 nM
IC50 at 72 h [34]: 11 µM
